This is an account of results in ChEMBL document CHEMBL3352190, “New benzothieno[3,2-d]-1,2,3-triazines with antiproliferative activity: synthesis, spectroscopic studies, and biological activity” (2014).

A word on the GI50: it is the concentration that inhibits growth by half.

Structures are written as SMILES. Activity calls are given as the source filed them. No cut-off for these calls is given here.

Assay [1] relates to HeLa. Description: Cytotoxicity against human HeLa cells assessed as reduction in cell viability by MTT assay. The format is functional, cell-based. The settings on record: TDE = time-dependent effect.
The test system of assay [2] is HeLa. The experiment in a line: Cytotoxicity against human HeLa cells assessed as reduction in cell viability after 24 hrs by MTT assay. The class given is functional. A general note: Tetrazolium dyes change colour on reduction, which living cells bring about.
Assay [3] deals with HeLa. Description: Cytotoxicity against human HeLa cells assessed as reduction in cell viability after 48 hrs by MTT assay. The class given is functional.
The subject of assay [4] is HeLa. Description: Cytotoxicity against human HeLa cells assessed as reduction in cell viability after 24 to 48 hrs by MTT assay. The format is functional.
In assay [5] the test system is Calf thymus DNA. The experiment in a line: Binding affinity to calf thymus DNA assessed as DNA intercalation by viscosity study. The class given is nucleic-acid assay. To be noted: Bos taurus.
The subject of assay [6] is HeLa. The experiment in a line: Cytotoxicity against human HeLa cells assessed as reduction in plasma membrane integrity at 1 to 50 uM by LDH release assay. The format is functional, cell-based. For orientation: LDH leaks from cells whose membrane has failed.
In assay [7] the test system is Calf thymus DNA. Description: Binding affinity to calf thymus DNA assessed as hypochromic effect by UV-vis spectroscopy. The format is nucleic-acid assay. Also on record: concentration or dose not given beside the values. The settings on record: Bos taurus.
Assay [8] concerns Calf thymus DNA. The experiment in a line: Binding affinity to calf thymus DNA assessed as change in CD spectrum of DNA by CD titration method. The class given is nucleic-acid assay. The settings on record: Bos taurus.
Assay [9] has as its system Calf thymus DNA. The experiment in a line: Binding affinity to calf thymus DNA assessed by UV-vis spectroscopy. The class given is nucleic-acid assay. The settings on record: Bos taurus.
The test system of assay [10] is HeLa. Description: Cell cycle arrest in human HeLa cells at 4.4 uM after 24 hrs by flow cytometry. The format is functional, cell-based. In general terms: A flow cytometer gives signals particle by particle.
Assay [11] deals with HeLa. The experiment in a line: Cell cycle arrest in human HeLa cells assessed as supression of G2/M phase after 12 to 24 hrs by flow cytometry. The format is functional, cell-based.
In assay [12] the test system is HeLa. Description: Cell cycle arrest in human HeLa cells at 8.8 uM after 12 hrs by flow cytometry. The format is functional, cell-based.
Assay [13] has as its system HeLa. Description: Cell cycle arrest in human HeLa cells assessed as accumulation of G0/G1 phase after 12 to 24 hrs by flow cytometry. The class given is functional, cell-based.
Assay [14] relates to HeLa. Description: Cell cycle arrest in human HeLa cells assessed as accumulation of cells at sub-G1 phase at 8.8 uM after 24 hrs by flow cytometry. The format is functional, cell-based.

Turning to `CCOC(=O)c1sc2ccccc2c1/N=N/Nc1ccc(F)c(Cl)c1`, the Activity result in the assay with HeLa [1] was “tde”; with HeLa [4], “Dose-dependent effect”. In addition, the GI50 in the assay on HeLa [2] stood at 31.4 µM; in the assay with HeLa [3], 12.9 µM. In the assay with Calf thymus DNA [5], the outcome was inactive.
As to `Cc1ccc(-n2nnc3c(sc4ccccc43)c2=O)cc1`, the results for the Activity result with HeLa [1], in the assay with Calf thymus DNA [7] and in the assay with HeLa [4] were “tde”, 25% and “Dose-dependent effect”, respectively. Besides, the result in the assay with HeLa [6] was inactive. Also, the results for the GI50 in the assay on HeLa [2] and in the assay with HeLa [3] were 5.32 µM and 1.88 µM, respectively. For the same molecule, the result in the assay on Calf thymus DNA [8] and in the assay with Calf thymus DNA [5] was Active. Further, the Kb in the assay on Calf thymus DNA [9] stood at 1.23 ×10⁵ /M.
As for `CN(C)/N=N/c1[nH]cnc1C(N)=O` [DACARBAZINE], in the assay on HeLa [4], the concentration for 50% growth inhibition (GI50) is more than 50 µM.
With `O=c1c2sc3ccccc3c2nnn1-c1ccccc1`, the Activity result in the assay with HeLa [1] was “tde”; in the assay with Calf thymus DNA [7], 85%; in the assay on HeLa [4], “Dose-dependent effect”. Besides, the GI50 in the assay with HeLa [2] amounted to 18.6 µM; with HeLa [3] it was 9.79 µM. Besides, the result with Calf thymus DNA [8] was inactive. In the assay with Calf thymus DNA [9], this molecule returned a Kb of 6.67 ×10⁵ /M. The result with Calf thymus DNA [5] was Active.
As for `CCOC(=O)c1sc2ccccc2c1/N=N/Nc1ccc(OC)cc1`, the Activity entry in the assay on HeLa [1] was “tde”; in the assay on HeLa [4], “Dose-dependent effect”. The concentration for 50% growth inhibition (GI50) with HeLa [2] stood at 49.1 µM; in the assay with HeLa [3], 17.4 µM.
For `CCOC(=O)c1sc2ccccc2c1/N=N/Nc1ccccc1`, the Activity result in the assay with HeLa [1] is “tde”; with Calf thymus DNA [7], 12%; with HeLa [4] it was “Dose-dependent effect”. Further, the GI50 came to 49.3 µM in the assay with HeLa [2] and 26.1 µM with HeLa [3]. Further, the outcome in the assay on Calf thymus DNA [8] and in the assay with Calf thymus DNA [5] was Active. In addition, the Kb in the assay with Calf thymus DNA [9] is 9.87 ×10⁵ /M.
On to `O=c1c2sc3ccccc3c2nnn1-c1ccc(F)c(Cl)c1`, for which the Activity entry in the assay on HeLa [1] was “tde”; in the assay on HeLa [4], “Dose-dependent effect”. The outcome in the assay on HeLa [6] and in the assay on Calf thymus DNA [5] was inactive. Besides, the GI50 with HeLa [2] amounted to 6.35 µM; in the assay with HeLa [3], 2.45 µM.
As for `COc1cc(-n2nnc3c(sc4ccccc43)c2=O)cc(OC)c1OC`, the results for the Activity result in the assay with HeLa [1], with Calf thymus DNA [7] and in the assay on HeLa [4] were “tde”, 29% and “Dose-dependent effect”, respectively. For the same molecule, the 50% growth inhibitory concentration (GI50) came out at 20.7 µM with HeLa [2] and 9.44 µM in the assay with HeLa [3]. In addition, in the assay with Calf thymus DNA [8], the outcome was inactive. The same molecule came in with a Kb with Calf thymus DNA [9] of 9.84 ×10⁵ /M. Also, the outcome with Calf thymus DNA [5] was Active.
As to `CCOC(=O)c1sc2ccccc2c1/N=N/Nc1ccc(C)cc1`, the Activity entry in the assay on HeLa [1] is “tde”; in the assay on HeLa [4], “Dose-dependent effect”. Moreover, the concentration for 50% growth inhibition (GI50) in the assay on HeLa [2] was 42.1 µM; with HeLa [3], 18.3 µM. Besides, in the assay with Calf thymus DNA [5], the result was inactive.
Turning to `Cn1nnc2c(C(N)=O)ncn2c1=O` [TEMOZOLOMIDE], the GI50 in the assay with HeLa [4] is more than 50 µM.
As to `CCOC(=O)c1sc2ccccc2c1/N=N/Nc1cc(OC)c(OC)c(OC)c1`, the Activity result was “tde” in the assay with HeLa [1], 11% in the assay on Calf thymus DNA [7] and “Dose-dependent effect” in the assay on HeLa [4]. For the same molecule, the GI50 stood at 22.8 µM in the assay on HeLa [2] and 14.4 µM with HeLa [3]. Besides, the outcome in the assay on Calf thymus DNA [8] was inactive. The molecule also returned a Kb in the assay with Calf thymus DNA [9] of 4.14 ×10⁶ /M. Besides, the result with Calf thymus DNA [5] was Active.
`COc1ccc(-n2nnc3c(sc4ccccc43)c2=O)cc1`: the Activity result was “tde” in the assay on HeLa [1]; 28% with Calf thymus DNA [7]; “Dose-dependent effect” in the assay with HeLa [11]; “Dose-dependent effect” in the assay on HeLa [4]; “Dose-dependent effect” with HeLa [13]. Moreover, the outcome in the assay with HeLa [6] was inactive. Also, the outcome in the assay with HeLa [10], in the assay on HeLa [12], in the assay with Calf thymus DNA [8], in the assay on Calf thymus DNA [5] and in the assay on HeLa [14] was Active. For the same molecule, the concentration for 50% growth inhibition (GI50) in the assay on HeLa [2] was 4.37 µM; in the assay on HeLa [3] it was 1.24 µM. Besides, the Kb in the assay with Calf thymus DNA [9] was 9.72 ×10⁴ /M.
